Literature values as cited in US4952402A, “Controlled release powder and process for its preparation” (priority 1984, dated 1990).

Cn1c(=O)c2[nH]cnc2n(C)c1=O [theophylline]
apparent biological half-life (in vivo): 4-9 hours | time of peak (rapid or immediate release): 2 h
